Results as given in the Kinase Knowledgebase extract (Sharma et al. 2016).

Molecular target: CDK2 (UniProt P24941)
Assay: Enzyme Assay

IC50, < 500 nM:
O=C(Nc1n[nH]c2cc(C(=O)O)oc12)c1ccc(N2CCOCC2)cc1
Cc1c(C(=O)NCc2ccc(F)cc2)sc2c(NC(=O)c3cccs3)n[nH]c12
O=C(Nc1n[nH]c2cc(C(=O)NCc3ccccc3)sc12)c1cc(F)cc(F)c1
Cc1c(C(=O)NCc2ccc(F)cc2)sc2c(NC(=O)c3ccc(F)cc3)n[nH]c12
CCCCNC(=O)c1cc2[nH]nc(NC(=O)CCCC)c2s1
CCNC(=O)c1cc2[nH]nc(NC(=O)c3ccc(N4CCN(C)CC4)cc3)c2s1
CCCCNC(=O)c1cc2[nH]nc(NC(=O)C3CC3)c2s1
CCC(NC(=O)c1cc2[nH]nc(NC(=O)c3ccc(N4CCN(C)CC4)cc3)c2o1)c1ccccc1 (configuration not stated)
CCC(NC(=O)c1cc2[nH]nc(NC(=O)c3ccc(N4CCOCC4)cc3)c2o1)c1ccccc1 (configuration not stated)
CN1CCN(c2ccc(C(=O)Nc3n[nH]c4cc(C(=O)NCc5ccco5)sc34)cc2)CC1
CCCCNC(=O)c1cc2[nH]nc(NC(=O)c3cccs3)c2s1
C[C@@H](NC(=O)c1cc2c(NC(=O)c3ccc(N4CCN(C)CC4)cc3)n[nH]c2s1)c1ccccc1
CN1CCN(c2ccc(C(=O)Nc3n[nH]c4cc(C(=O)NCc5ccoc5)sc34)cc2)CC1
C=CCNC(=O)c1cc2[nH]nc(NC(=O)NCc3ccccc3)c2s1
O=C(Nc1n[nH]c2cc(C(=O)O)sc12)c1ccc(N2CCOCC2)cc1
CN1CCN(C(=O)c2cc3[nH]nc(NC(=O)c4ccc(F)cc4)c3s2)CC1
CN1CCN(C(=O)c2cc3[nH]nc(NC(=O)c4ccc(F)cc4)c3o2)CC1
